Laboratory results from article PMC7922564, “Molecular Insights into an Antibiotic Enhancer Action of New Morpholine-Containing 5-Arylideneimidazolones in the Fight against MDR Bacteria” (International Journal of Molecular Sciences, 2021).
“And” between values parts separate entries of the source, which are not always exact repeats. Equal values may be shown once. Read-outs that look alike come from different tables or passages of the source.

Legend:
[1] = test system: K. aerogenes Ea-289 (overexpression of AcrAB-TolC); test: MIC of compounds, K. aerogenes Ea-289; format: cell-based; conditions: Klebsiella aerogenes
Procedure: At first, MIC values of compounds were determined (Table S15, Supplementary). Next, their abilities to reduce MICs of the AcrAB-TolC substrates doxycycline (a tetracycline-class antibiotic) and erythromycin were studied (Table S16, Supplementary). […]
(§1) Determination of MIC values, i.e., intrinsic antibacterial activity, of products and antibiotics (oxacillin, ampicillin, vancomycin, ciprofloxacin, and erythromycin) in the presence and absence of compounds tested was conducted by the use of a standard 2-fold microdilution method in cation-adjusted Mueller Hinton broth following the Clinical and Laboratory Standards Institute (CLSI) guidelines. The MIC values were detected using an Infinite M200 pro Tecan microplate reader (Tecan® France, SA-Lyon, France). MIC determinations were conducted in 96-well microtiter plates and repeated 3–4 times.
(§2) MIC values of 5-arylideneimidazolone derivatives were determined following CLSI recommendations as in the methods described for S. aureus (Section 3.3.1).

K. aerogenes Ea-289 = test: MIC reduction assay (antibiotic adjuvant), K. aerogenes Ea-289; format: cell-based, Klebsiella aerogenes;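 further: compound at no more than one quarter of its own MIC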
Procedure: At first, MIC values of compounds were determined (Table S15, Supplementary). Next, their abilities to reduce MICs of the AcrAB-TolC substrates doxycycline (a tetracycline-class antibiotic) and erythromycin were studied (Table S16, Supplementary).
(§3) A subset of compounds, namely 7, 12–16, 19, 20, was also examined for the potential to increase the effectiveness of the antibiotics chloramphenicol, erythromycin, doxycycline, and the fluoroquinolone antibiotic norfloxacin, which all are substrates for AcrAB-TolC in K. aerogenes. In addition to strain Ea-289, the adjuvant-like effect of the compounds was investigated in strain CM-64, which also overexpresses the AcrAB-TolC efflux pump, although it has no changes in porin content, and in the Ea-289 derivatives, i.e., Ea-294 and Ea-308, which are devoid of AcrAB (Table S17, Supplementary).
(§4) Initially, MICs of a series of imidazolone derivatives were assessed against susceptible (reference) and MDR strains of staphylococci. Next, MIC values of the aforementioned antibiotics were determined in the absence and presence of imidazolone derivatives to assess the chemosensitizing effect of these compounds. […] 5-arylideneimidazolones and 5-arylidenethiazolones, which precipitated after addition to bacterial suspension in MH II medium, were tested at the highest concentrations at which precipitation was not observed. […] Antibacterial activity of compounds and antibiotics ampicillin, vancomycin, ciprofloxacin, and erythromycin was recorded as the lowest concentration of molecules able to inhibit bacterial growth after 18 h incubation at 37 °C. The incubation of bacterial strains exposed to oxacillin paired with compounds tested was conducted at 35 °C and extended to 24 h due to frequent occurrence of heterogeneity among MRSA strains. The results are presented as activity gain (A) parameter which was calculated as ratio of MIC of a certain antibiotic (MICAnt) to its MICAnt+Comp, observed in combination with a tested compound (7, 12–16, 19, or 20; Equation (1)). (1) A=(MICAnt/MICAnt+Comp)
as §2

MRSA 19449 = test: MIC determination (microdilution), MRSA 19449; format: cell-based, Staphylococcus aureus; conditions: for MIC: Staphylococcus aureus, MRSA, no precipitation
Procedure: as §1, §4

S. aureus ATCC 25923 = test: MIC determination (microdilution), S. aureus ATCC 25923; format: cell-based, Staphylococcus aureus; conditions: for MIC: Staphylococcus aureus, ATCC25923, unstarred values of column MIC value/no precipitation, read-out: MIC value
Procedure: as §1, §4

[2] = Stability in acidic and basic conditions (TLC); format: physicochemical; conditions: for Number of TLC spots: 1 = stable
Procedure: Compounds 9–12, 15, and 19 were also tested for their stability in acidic and basic conditions. This assay was carried out for 48 h and samples were taken at six-time intervals (10 min, 1 h, 2 h, 3 h, 24 h, 48 h). Stability of the compounds was determined using the TLC method. […] In basic conditions, only compounds 10 and 15 were stable for 24 h. […] Results with details, including time of degradation of products obtained, are presented in the Supplementary (Tables S19 and S20). […]
VI. Stability in different pH conditions
Stability of chosen compounds (9-12, 15, and 19) were determined using the TLC method. Assays were performed in acidic and basic conditions and were carried out for 48 h. Samples were taken at six-time intervals (10 min., 1 h, 2 h, 3 h, 24 h, 48 h). […]
of spots observed on TLC, where 1 indicate that compound is stable (only TLC spot for proper compound was observed). Higher values point out how many products of degradation was observed, which can be calculating by subtracting one from number of spots.
Table S19. Results of chosen compounds (9-12, 15, 19) stability in acidic conditions.
Compound Number of TLC spots in defined time
Table S20. Results of chosen compounds (9-12, 15, 19) stability in basic conditions.

[3] = Water solubility (UV spectroscopy); format: physicochemical
Text: Six representatives of 5-arylideneimidazolones (9–12, 15, 19) were chosen for the determination of water solubility. UV spectroscopy was used for the estimation of concentrations of compounds according to the method described earlier. Acquired UV absorbance, calculated means, and standard deviations for tested compounds are presented in Supplementary Table S18. Solubility results, presented in Table 6, point out that compounds from the same group (A or B, Table 1 and Table 2) with the two-ring aromatic moiety are more soluble than compounds with the fluorene motive (Group A: 9, 10, 11 vs. 12; Group B: 15 vs. 19). […] The most soluble of tested compounds was compound 15, which could be dissolved in water at a concentration of up to 205.502 mM/L.
Water solubility was obtained using UV spectroscopy method. Absorbance of tested solutions of compounds 9-12, 15, and 19, respectively in suitable dilution, in three repetitions as well as calculated arithmetic means, solubility and standard deviations are presented in Table S18. the solubility results […]
Table S18. Results of absorbance used for estimation of water solubility of tested compounds (9-12, 15, 19).
Abbreviations: A1, A2,and A3, UV absorbance in first, second, and third repetition; Amean, arithmetic mean of absorbance from three repetitions; s, standard deviation for absorbance; S, water solubility; SD – standard deviation for solubility. […]

[4] = test system: K. aerogenes Ea-294, Ea-308 (devoid of AcrAB); test: MIC of compounds, K. aerogenes Ea-294, Ea-308; format: cell-based; conditions: Klebsiella aerogenes, read-out: Minimal Inhibitory Concentration (MIC)
Text: as §3, §1, §2

K. aerogenes CM-64 = test: MIC reduction assay (antibiotic adjuvant), K. aerogenes CM-64; format: cell-based, Klebsiella aerogenes; conditions: doxycycline, chloramphenicol, norfloxacin, erythromycin;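 further: compound at no more than one quarter of its own MIC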
Text: as §3, §4, §2

[5] = test system: AcrAB-TolC efflux pump in K. aerogenes strain Ea-289; test: Real-time efflux (RTE) assay, 1,2'-dNA extrusion; format: cell-based, Klebsiella aerogenes; conditions: compound 100 µM; IE=100% total inhibition of efflux
Procedure: Compounds 7, 12–16, 19, and 20 were also assessed for their EPI property in K. aerogenes strain Ea-289 with the use of a real-time efflux (RTE) assay. Results for compounds 16 and 20 were previously described. The experiment is based on the measurement of the extrusion of a fluorescent dye from bacterial cells overproducing efflux pump transporters in the presence and absence of compounds tested. The dye used in this assay, 1,2’ –dinaphthylamine (1,2’-dNA), is a substrate for the AcrAB-TolC efflux pump, and is strongly fluorescent upon incorporation into a phospholipid bilayer, although it is almost non-fluorescent in an aqueous solution [37, 38].
A likewise strong blocking efficacy (IE = 83 %) was also noticed for compound 12, while the lowest inhibitory effect was found for compound 13 (IE = 23 %).
The inhibitory activity of 5-arylideneimidazolone derivatives towards AcrAB-TolC mediated efflux of 1,2’-dNA was detected in K. aerogenes strain Ea-289 by using a real-time fluorometric method. In a first step, bacterial cells were loaded with the environment-sensitive fluorescent membrane probe, 1,2’-dNA, in the presence of the EPI carbonyl cyanide m-chlorophenylhydrazone (CCCP) which inactivated the pump by dissipating membrane potential. Next, compounds tested were added at the concentration of 100 µM and the efflux was energizing by automated injection of glucose at a dose of 50 µM. The fluorescence intensity was measured in a microplate reader (Tecan) with an excitation wavelength of λex = 370 nm and an emission wavelength of λem = 420 nm.

[6] = test system: K. aerogenes CM-64 (overexpression of AcrAB-TolC); test: MIC of compounds, K. aerogenes CM-64; format: cell-based; conditions: Klebsiella aerogenes, read-out: Minimal Inhibitory Concentration (MIC)
Text: as §3, §1, §2

[7] = test system: K. aerogenes Ea-294, Ea-308; test: MIC reduction assay (antibiotic adjuvant), K. aerogenes Ea-294, Ea-308; format: cell-based, Klebsiella aerogenes; conditions: doxycycline, chloramphenicol, norfloxacin, erythromycin;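 further: compound at no more than one quarter of its own MIC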
Text: as §3, §4, §2

[8] = read-out: MIC value/no precipitation
[9] = read-out: Minimal Inhibitory Concentration (MIC)
[10] = doxycycline, chloramphenicol, norfloxacin, erythromycin

O=C1NC(N2CCC(N3CCOCC3)CC2)=N/C1=C\c1ccc(-c2ccccc2)cc1 [Compound 8]
MIC [1, 8]: > 250 µM
A (activity gain) (K. aerogenes Ea-289; doxycycline): 1
A (activity gain) (K. aerogenes Ea-289; erythromycin): 1
MIC (MRSA 19449): 31.2 to 250 µM

NC1=N/C(=C\c2ccc(Oc3ccccc3)cc2)C(=O)N1CCCN1CCOCC1 [Compound 17]
MIC [1, 8]: > 250 µM
A (activity gain) (K. aerogenes Ea-289; doxycycline): 1
A (activity gain) (K. aerogenes Ea-289; erythromycin): 1
MIC (MRSA 19449): 31.2 to 250 µM

Cc1onc(-c2ccccc2)c1C(=O)N[C@@H]1C(=O)N2[C@@H]1SC(C)(C)[C@@H]2C(=O)O [oxacillin, reference compound]
MIC of the antibiotic alone (MRSA 19449; oxacillin alone): 256 µg/mL
MIC of the antibiotic alone (S. aureus ATCC 25923; oxacillin alone): 0.25 µg/mL

O=C1NC(N2CCC(N3CCOCC3)CC2)=N/C1=C\c1cccc(Oc2ccccc2)c1 [Compound 9]
MIC [1, 8]: > 250 µM
A (activity gain) (K. aerogenes Ea-289; doxycycline): 1
A (activity gain) (K. aerogenes Ea-289; erythromycin): 1
Number of TLC spots ([2]; acidic conditions, 10 min): 2
Number of TLC spots ([2]; acidic conditions, 1 h): 2
Number of TLC spots ([2]; acidic conditions, 2 h): 2
Number of TLC spots ([2]; acidic conditions, 3 h): 2
Number of TLC spots ([2]; acidic conditions, 24 h): 2
Number of TLC spots ([2]; acidic conditions, 48 h): 2
Number of TLC spots ([2]; basic conditions, 10 min): 2
Number of TLC spots ([2]; basic conditions, 1 h): 2
Number of TLC spots ([2]; basic conditions, 2 h): 2
Number of TLC spots ([2]; basic conditions, 3 h): 2
Number of TLC spots ([2]; basic conditions, 24 h): 2
Number of TLC spots ([2]; basic conditions, 48 h): 2
MIC (MRSA 19449): 31.2 to 250 µM
solubility [3]: 1480 µg/mL and 3170 µM
MIC (S. aureus ATCC 25923): 31.2 to 250 µM

O=C1NC(N2CCOCC2)=N/C1=C\c1ccc(-c2ccccc2)cc1 [Compound 7]
MIC [1, 8]: > 250 µM
MIC [1, 9]: > 2000 µM
MIC [4]: 2000 µM
A (activity gain) (K. aerogenes CM-64): 1
Inhibition efficiency (IE) towards extrusion of 1,2'-dNA [5]: 59%
A (activity gain) (K. aerogenes Ea-289; doxycycline): 1
A (activity gain) (K. aerogenes Ea-289; [10]): 1
A (activity gain) (K. aerogenes Ea-289; erythromycin): 1
MIC (MRSA 19449): 31.2 to 250 µM
MIC [6]: > 2000 µM
MIC (S. aureus ATCC 25923): 31.2 to 250 µM
A (activity gain) [7]: 1

NC1=N/C(=C\c2cc3ccccc3c3ccccc23)C(=O)N1CCCN1CCOCC1 [Compound 21]
MIC [1, 8]: > 250 µM
A (activity gain) (K. aerogenes Ea-289; doxycycline): 1
A (activity gain) (K. aerogenes Ea-289; erythromycin): 1
MIC (MRSA 19449): 31.2 to 250 µM
MIC (S. aureus ATCC 25923): 31.2 to 250 µM

O=C1NC(N2CCC(N3CCOCC3)CC2)=N/C1=C\c1ccc(Oc2ccccc2)cc1 [Compound 10]
MIC [1, 8]: > 250 µM
A (activity gain) (K. aerogenes Ea-289; doxycycline): 1
A (activity gain) (K. aerogenes Ea-289; erythromycin): 1
Number of TLC spots ([2]; acidic conditions, 10 min): 1
Number of TLC spots ([2]; acidic conditions, 1 h): 1
Number of TLC spots ([2]; acidic conditions, 2 h): 1
Number of TLC spots ([2]; acidic conditions, 3 h): 1
Number of TLC spots ([2]; acidic conditions, 24 h): 1
Number of TLC spots ([2]; acidic conditions, 48 h): 2
time stable ([2]; basic conditions): 24 h
Number of TLC spots ([2]; basic conditions, 10 min): 1
Number of TLC spots ([2]; basic conditions, 1 h): 1
Number of TLC spots ([2]; basic conditions, 2 h): 1
Number of TLC spots ([2]; basic conditions, 3 h): 1
Number of TLC spots ([2]; basic conditions, 24 h): 1
Number of TLC spots ([2]; basic conditions, 48 h): 2
MIC (MRSA 19449): 31.2 to 250 µM
solubility [3]: 2680 µg/mL and 5740 µM

O=C1NC(N2CCC(N3CCOCC3)CC2)=N/C1=C\c1c2ccccc2cc2ccccc12 [Compound 13]
MIC [1, 8]: > 250 µM
MIC [1, 9]: > 2000 µM
MIC [4]: 2000 µM
A (activity gain) (K. aerogenes CM-64): 1
Inhibition efficiency (IE) towards extrusion of 1,2'-dNA [5]: 23%
A (activity gain) (K. aerogenes Ea-289; doxycycline): 1
A (activity gain) (K. aerogenes Ea-289; [10]): 1
A (activity gain) (K. aerogenes Ea-289; erythromycin): 1
MIC (MRSA 19449): 31.2 to 250 µM
MIC [6]: > 2000 µM
MIC (S. aureus ATCC 25923): 31.2 to 250 µM
A (activity gain) [7]: 1
